Data published in US20100311592A1, “USE OF 2-IODO-N 4-METHOXY-6-METHYL-1,3,5-TRIAZINE-2-YL CARBAMOYL BENZENESULFONAMIDE AND/OR SALTS THEREOF FOR COMBATING UNDESIRED PLANT GROWTH IN SELECTED USEFUL PLANT CROPS OR NON-CULTIVATED LAND” (Bayer CropScience AG, priority 2007, published 2010).

What was measured:
Format in all cases: in vivo
[1] = test system: Lolium multiflorum; assay: Pre-emergence herbicidal activity; conditions: pre-emergence method, application rate of 0.1 kg or less of active substance per hectare, visual scoring after 3 to 4 weeks
Description: (§1) Seeds or rhizome pieces of mono- and dicotyledonous weeds were placed in sandy loam in cardboard pots and covered with soil. The compounds according to the invention, formulated in the form of wettable powders or emulsion concentrates, were then applied to the surface of the covering soil in the form of aqueous suspensions or emulsions at an application rate of 100 to 8001 of water/ha (converted), at various dosages.
(§2) After the treatment, the pots were placed in a greenhouse and kept under good growth conditions for the weeds. Visual scoring of the damage to the plants or the emergence damage was carried out after the emergence of the test plants after a test period of 3 to 4 weeks, by comparison with untreated controls. As shown by the results, the compounds according to the invention have good herbicidal pre-emergence activity against a broad spectrum of weed grasses and broad-leaved weeds.

[2] = test system: Matricaria inodora; assay: Pre-emergence herbicidal activity; conditions: pre-emergence method, application rate of 0.1 kg or less of active substance per hectare, visual scoring after 3 to 4 weeks
Description: as §1, §2

[3] = test system: Papaver rhoeas; assay: Pre-emergence herbicidal activity; conditions: pre-emergence method, application rate of 0.1 kg or less of active substance per hectare, visual scoring after 3 to 4 weeks
Description: as §1, §2

[4] = test system: Stellaria media; assay: Pre-emergence herbicidal activity; conditions: pre-emergence method, application rate of 0.1 kg or less of active substance per hectare, visual scoring after 3 to 4 weeks
Description: as §1, §2

[5] = test system: Viola tricolor; assay: Pre-emergence herbicidal activity; conditions: pre-emergence method, application rate of 0.1 kg or less of active substance per hectare, visual scoring after 3 to 4 weeks
Description: as §1, §2

[6] = test system: Abuthilon theophrasti; assay: Post-emergence action against weeds; conditions: post-emergence method, application rate of 0.1 kg or less of active substance per hectare, visual scoring after about 3 to 4 weeks
Procedure: (§3) Seeds or rhizome pieces of monocotyledonous and dicotyledonous weeds were placed in sandy loam in plastic pots, covered with soil and cultivated in a greenhouse under good growth conditions. Three weeks after sowing, the test plants were treated at the three-leaf stage.

[7] = test system: Amaranthus retroflexus; assay: Post-emergence action against weeds; conditions: post-emergence method, application rate of 0.1 kg or less of active substance per hectare, visual scoring after about 3 to 4 weeks
Procedure: as §3

[8] = test system: Ipomoea purpurea; assay: Post-emergence action against weeds; conditions: post-emergence method, application rate of 0.1 kg or less of active substance per hectare, visual scoring after about 3 to 4 weeks
Procedure: as §3

[9] = test system: Lolium multiflorum; assay: Post-emergence action against weeds; conditions: post-emergence method, application rate of 0.1 kg or less of active substance per hectare, visual scoring after about 3 to 4 weeks
Procedure: as §3

[10] = test system: Matricaria inodora; assay: Post-emergence action against weeds; conditions: post-emergence method, application rate of 0.1 kg or less of active substance per hectare, visual scoring after about 3 to 4 weeks
Procedure: as §3

[11] = test system: Stellaria media; assay: Post-emergence action against weeds; conditions: post-emergence method, application rate of 0.1 kg or less of active substance per hectare, visual scoring after about 3 to 4 weeks
Procedure: as §3

[12] = test system: Veronica persica; assay: Post-emergence action against weeds; conditions: post-emergence method, application rate of 0.1 kg or less of active substance per hectare, visual scoring after about 3 to 4 weeks
Procedure: as §3

[13] = test system: Viola tricolor; assay: Post-emergence action against weeds; conditions: post-emergence method, application rate of 0.1 kg or less of active substance per hectare, visual scoring after about 3 to 4 weeks
Procedure: as §3

[14] = test system: barley; assay: Compatibility with crop plants; conditions: pre- or post-emergence treatment in the greenhouse; visual scoring four to five weeks after application; even at relatively high application rates
Description: In further tests in the greenhouse, seeds of a relatively large number of crop plants and weeds were placed in sandy loam and covered with soil. Some of the pots were immediately treated as described in section 1, the others were placed in the greenhouse until the plants had developed two to three true leaves and were then sprayed with 2-iodo-N-[(4-methoxy-6-methyl-1,3,5-triazin-2-yl)carbamoyl]benzenesulfonamide and also, for example, the compounds Nos. I-1, I-2, I-3, I-4, I-12, I-18 and 1-19 from Table 1, as described in section 2.

SMILES | herbicidal activity [1] | herbicidal activity [2] | herbicidal activity [3] | herbicidal activity [4] | herbicidal activity [5] | herbicidal activity [6] | herbicidal activity [7] | herbicidal activity [8] | herbicidal activity [9] | herbicidal activity [10] | herbicidal activity [11] | herbicidal activity [12] | herbicidal activity [13] | damage to barley [14]
COc1nc(C)nc(NC(=O)NS(=O)(=O)c2ccccc2I)n1 [2-iodo-N-[(4-methoxy-6-methyl-1,3,5-triazin-2-yl)carbamoyl]benzenesulfonamide] | very good herbicidal activity | very good herbicidal activity | very good herbicidal activity | very good herbicidal activity | very good herbicidal activity | very good herbicidal activity | very good herbicidal activity | very good herbicidal activity | very good herbicidal activity | very good herbicidal activity | very good herbicidal activity | very good herbicidal activity | very good herbicidal activity | did not damage barley at all or left only marginal traces of damage
CC[N+](CC)(CC)CC.COc1nc(C)nc(NC(=O)[N-]S(=O)(=O)c2ccccc2I)n1 [Compound I-12] | very good herbicidal activity | very good herbicidal activity | very good herbicidal activity | very good herbicidal activity | very good herbicidal activity | very good herbicidal activity | very good herbicidal activity | very good herbicidal activity | very good herbicidal activity | very good herbicidal activity | very good herbicidal activity | very good herbicidal activity | very good herbicidal activity | did not damage barley at all or left only marginal traces of damage
CCCC[N+](CCCC)(CCCC)CCCC.COc1nc(C)nc(NC(=O)[N-]S(=O)(=O)c2ccccc2I)n1 [Compound I-18] | very good herbicidal activity | very good herbicidal activity | very good herbicidal activity | very good herbicidal activity | very good herbicidal activity | very good herbicidal activity | very good herbicidal activity | very good herbicidal activity | very good herbicidal activity | very good herbicidal activity | very good herbicidal activity | very good herbicidal activity | very good herbicidal activity | did not damage barley at all or left only marginal traces of damage
